# In US20240150377A1, “MODULATORS OF CYSTIC FIBROSIS TRANSMEMBRANE CONDUCTANCE REGULATOR” (VERTEX PHARMACEUTICALS INCORPORATED, priority 2020, published 2024):
# Like-named read-outs stand apart in the source and are kept apart here.
# Molecular target: CFTR (Homo sapiens, UniProt P13569)
# Test: Membrane potential dye, Enteroid Assay B
# Type: cell-based
# Details: for Ent. B Max Activity: chloride transport as % of triple combination control (Enteroid Assay B); for EC50: read-out: Ent. B EC50
# Description: Base medium (ADF+++) consisted of Advanced DMEM/Ham's F12, 2 mM Glutamax, 10 mM HEPES, […] penicillin/streptomycin.
# Intestinal enteroid maintenance medium (IEMM) consisted of ADF+++, 1× B27 supplement, 1× N2 supplement, 1.25 mM N-acetyl cysteine, 10 mM Nicotinamide, 50 ng/mL hEGF, 10 nM Gastrin, 1 μg/mL hR-spondin-1, 100 ng/mL hNoggin, TGF-b type 1 inhibitor A-83-01, 100 μg/mL Primocin, 10 μM P38 MAPK inhibitor SB202190.
# Bath 1 Buffer consisted of 1 mM MgCl2, 160 mM NaCl, 4.5 mM KCl, 10 mM HEPES, 10 mM Glucose, 2 mM CaCl2).
# Chloride Free Buffer consisted of 1 mM Magnesium Gluconate, 2 mM Calcium Gluconate, 4.5 mM Potassium Gluconate, 160 mM Sodium Gluconate, 10 mM HEPES, 10 mM Glucose.
# BathI Dye Solution consisted of Bath 1 Buffer, 0.04% Pluronic F127, 20 μM Methyl Oxonol, 30 μM CaCCinh-A01, 30 μM Chicago Sky Blue.
# Chloride Free Dye Solution consisted of Chloride Free Buffer, 0.04% Pluronic F127, 20 μM Methyl Oxonol, 30 μM CaCCinh-A01, 30 μM Chicago Sky Blue.
# Chloride Free Dye Stimulation Solution consisted of Chloride Free Dye Solution, 10 μM forskolin, 100 μM IBMX, and 300 nM Compound III.
# Human intestinal epithelial enteroid cells were obtained from the Hubrecht Institute for Developmental Biology and Stem Cell Research, Utrecht, The Netherlands and expanded in T-Flasks as previously described (Dekkers J F, Wiegerinck C L, de Jonge H R, Bronsveld I, Janssens H M, de Winter-de Groot K M, Brandsma A M, de Jong N W M, Bijvelds M J C, Scholte B J, Nieuwenhuis E E S, van den Brink S, Clevers H, van der Ent C K, Middendorp S and M Beekman J M. A functional CFTR assay using primary cystic fibrosis intestinal organoids. Nat Med. 2013 July;19(7):939-45.).
# 3. Enteroid Cell Harvesting and Seeding
# Cells were recovered in cell recovery solution, collected by centrifugation at 650 rpm for 5 min at 4° C., resuspended in TrypLE and incubated for 5 min at 37° C. Cells were then collected by centrifugation at 650 rpm for 5 min at 4° C. and resuspended in IEMM containing 10 μM ROCK inhibitor (RI). The cell suspension was passed through a 40 μm cell strainer and resuspended at 1×10^6 cells/mL in IEMM containing 10 μM RI. Cells were seeded at 5000 cells/well into multi-well plates and incubated for overnight at 37° C., 95% humidity and 5% CO2 prior to assay.
# 5. Membrane Potential Dye, Enteroid Assay B
# Enteroid cells were incubated with test compound in IEMM for 18-24 hours at 37° C., 95% humidity and 5% CO2. […] Briefly, cells were washed 5 times in Bath 1 Buffer. Bath 1 Dye Solution was added and the cells were incubated for 25 min at room temperature. Following dye incubation, cells were washed 3 times in Chloride Free Dye Solution. Chloride transport was initiated by addition of Chloride Free Dye Stimulation Solution and the fluorescence signal was read for 15 min. […] Chloride transport was then expressed as a percentage of the chloride transport following treatment with 1 μM (14S)-8-[3-(2-{Dispiro[2.0.2.1]heptan-7-yl}ethoxy)-1H-pyrazol-1-yl]-12,12-dimethyl-2λ^6-thia-3,9,11,18,23-pentaazatetracyclo[17.3.1.111,14.05,10]tetracosa-1(22),5,7,9,19(23),20-hexaene-2,2,4-trione, 3 μM (R)-1-(2,2-difluorobenzo[d][1,3]dioxol-5-yl)-N-(1-(2,3-dihydroxypropyl)-6-fluoro-2-(1-hydroxy-2-methylpropan-2-yl)-1H-indol-5-yl)cyclopropanecarboxamide and 300 nM acute N-[2,4-bis(1,1-dimethylethyl)-5-hydroxyphenyl]-1,4-dihydro-4-oxoquinoline-3-carboxamide triple combination control (% Activity).
# [1] = Table 8, human enteroid cells, 18-24 hours, acute 10 μM forskolin and 300 nM ivacaftor
# CFTR, sequence (P13569 with tags, fused parts or gaps DEL508-508): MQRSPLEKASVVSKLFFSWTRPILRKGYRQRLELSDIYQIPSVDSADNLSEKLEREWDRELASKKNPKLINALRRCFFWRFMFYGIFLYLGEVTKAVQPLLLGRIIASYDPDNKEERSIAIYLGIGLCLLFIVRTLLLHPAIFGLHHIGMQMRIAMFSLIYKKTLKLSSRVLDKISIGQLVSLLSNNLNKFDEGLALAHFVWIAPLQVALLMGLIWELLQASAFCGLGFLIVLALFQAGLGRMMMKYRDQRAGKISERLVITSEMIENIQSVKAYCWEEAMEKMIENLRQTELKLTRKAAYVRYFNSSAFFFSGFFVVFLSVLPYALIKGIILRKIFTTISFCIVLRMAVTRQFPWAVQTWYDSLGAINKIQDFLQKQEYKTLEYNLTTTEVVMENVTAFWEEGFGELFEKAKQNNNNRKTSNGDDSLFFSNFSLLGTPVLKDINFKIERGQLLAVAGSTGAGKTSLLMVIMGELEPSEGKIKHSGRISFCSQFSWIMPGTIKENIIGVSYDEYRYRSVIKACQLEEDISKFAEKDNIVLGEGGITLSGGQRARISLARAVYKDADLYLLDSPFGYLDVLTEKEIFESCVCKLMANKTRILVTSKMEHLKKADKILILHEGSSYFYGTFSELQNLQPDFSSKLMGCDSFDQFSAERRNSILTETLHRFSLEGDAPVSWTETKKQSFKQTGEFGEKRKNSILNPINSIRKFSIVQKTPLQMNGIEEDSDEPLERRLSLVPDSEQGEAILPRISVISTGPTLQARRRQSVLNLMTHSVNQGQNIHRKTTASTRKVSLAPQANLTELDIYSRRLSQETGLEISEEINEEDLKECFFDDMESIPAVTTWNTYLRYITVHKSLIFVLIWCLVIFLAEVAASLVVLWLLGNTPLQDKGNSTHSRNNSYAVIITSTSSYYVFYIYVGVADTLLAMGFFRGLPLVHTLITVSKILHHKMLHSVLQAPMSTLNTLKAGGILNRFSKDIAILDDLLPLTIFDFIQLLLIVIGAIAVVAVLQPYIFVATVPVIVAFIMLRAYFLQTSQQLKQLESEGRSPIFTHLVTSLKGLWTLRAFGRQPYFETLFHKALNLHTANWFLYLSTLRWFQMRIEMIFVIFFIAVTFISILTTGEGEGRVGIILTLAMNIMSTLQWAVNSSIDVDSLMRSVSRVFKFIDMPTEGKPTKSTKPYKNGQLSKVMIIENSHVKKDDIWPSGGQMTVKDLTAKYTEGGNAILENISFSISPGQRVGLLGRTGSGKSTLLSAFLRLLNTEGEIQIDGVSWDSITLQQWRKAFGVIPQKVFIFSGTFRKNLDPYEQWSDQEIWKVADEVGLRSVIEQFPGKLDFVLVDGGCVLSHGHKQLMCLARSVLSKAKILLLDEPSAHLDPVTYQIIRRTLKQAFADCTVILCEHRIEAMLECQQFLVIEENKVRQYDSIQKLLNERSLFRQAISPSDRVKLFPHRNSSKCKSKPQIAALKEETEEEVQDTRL
SMILES,Ent. B Max Activity (Table 8),EC50 [1] [nM],Ent. B Max Activity (%) (Table 9),EC50 (Table 9) [nM],also measured
"Cc1cccc(C)c1-c1cc2nc(n1)NS(=O)(=O)c1cc(nn1C)C(=O)N(Cc1ncccn1)[C@H](CC(C)(C)C)CO2 [Compound 70, (10R)-15-(2,6-Dimethylphenyl)-10-(2,2-dimethylpropyl)-5-methyl-3,3-dioxo-9-(pyrimidin-2-ylmethyl)-12-oxa-3λ^6-thia-2,5,6,9,16,17-hexazatricyclo[11.3.1.14,7]octadeca-1(17),4(18),6,13,15-pentaen-8-one]",++ (++ is 30-60%),< 1000,–,–,–
"Cc1cccc(C)c1-c1cc2nc(n1)NS(=O)(=O)c1cccc(n1)C(=O)N(CCCCC(C)(C)O)[C@H](CC(C)(C)C)CO2 [Compound 76, (11R)-6-(2,6-Dimethylphenyl)-11-(2,2-dimethylpropyl)-12-(5-hydroxy-5-methylhexyl)-9-oxa-2λ^6-thia-3,5,12,18,19-pentaazatricyclo[12.3.1.14,8]nonadeca-1(18),4(19),5,7,14,16-hexaene-2,2,13-trione]",+++ (+++ is >60%),< 1000,–,–,–
"Cc1cccc(C)c1-c1cc2nc(n1)NS(=O)(=O)c1cccc(c1)C(=O)N(CCN(C)C(=O)OC(C)C)[C@H](CC(C)C)CO2 [Compound 91, Isopropyl N-[2-[(11R)-6-(2,6-dimethylphenyl)-11-isobutyl-2,2,13-trioxo-9-oxa-2λ^6-thia-3,5,12,19-tetrazatricyclo[12.3.1.14,8]nonadeca-1(18),4(19),5,7,14,16-hexaen-12-yl]ethyl]-N-methyl-carbamate]",–,–,–,–,"Ent. B Max Activity (Table 7): +++ (+++ is >60%); EC50 (Table 7, human enteroid cells, 18-24 hours, acute 10 μM forskolin and 300 nM ivacaftor): < 1000 nM"
"Cc1cccc(C)c1-c1cc2nc(n1)NS(=O)(=O)c1cccc(c1)C(=O)N(CCCC(=O)N(C)C)[C@H](CC(C)C)CO2 [Compound 92, 4-[(11R)-6-(2,6-Dimethylphenyl)-11-isobutyl-2,2,13-trioxo-9-oxa-2λ^6-thia-3,5,12,19-tetrazatricyclo[12.3.1.14,8]nonadeca-1(18),4(19),5,7,14,16-hexaen-12-yl]-N,N-dimethyl-butanamide]",+++ (+++ is >60%),< 1000,–,–,–
"Cc1cccc(C)c1-c1cc2nc(n1)NS(=O)(=O)c1cccc(c1)C(=O)N(CCCO)[C@H](CC(C)C)CO2 [Compound 96, (11R)-6-(2,6-Dimethylphenyl)-12-(3-hydroxypropyl)-11-(2-methylpropyl)-9-oxa-2λ^6-thia-3,5,12,19-tetraazatricyclo[12.3.1.14,8]nonadeca-1(18),4,6,8(19),14,16-hexaene-2,2,13-trione]",+++ (+++ is >60%),< 1000,–,–,–
"Cc1cccc(C)c1-c1cc2nc(n1)NS(=O)(=O)c1cccc(c1)C(=O)N(CCCCC(C)(C)O)[C@H](CC(C)(C)C)CO2 [Compound 107, (11R)-6-(2,6-Dimethylphenyl)-11-(2,2-dimethylpropyl)-12-(5-hydroxy-5-methyl-hexyl)-2,2-dioxo-9-oxa-2λ^6-thia-3,5,12,19-tetrazatricyclo[12.3.1.14,8]nonadeca-1(18),4(19),5,7,14,16-hexaen-13-one]",+++ (+++ is >60%),< 1000,–,–,–
"Cc1cccc(C)c1-c1cc2nc(n1)NS(=O)(=O)c1cccc(c1)C(=O)N(CCc1ccc(C(C)(C)O)cc1)[C@H](CC(C)(C)C)CO2 [Compound 108, (11R)-6-(2,6-Dimethylphenyl)-11-(2,2-dimethylpropyl)-12-[2-[4-(1-hydroxy-1-methyl-ethyl)phenyl]ethyl]-2,2-dioxo-9-oxa-2λ^6-thia-3,5,12,19-tetrazatricyclo[12.3.1.14,8]nonadeca-1(18),4(19),5,7,14,16-hexaen-13-one]",–,–,+++ (+++ is >600%),< 1000,–
"Cc1cccc(C)c1-c1cc2nc(n1)NS(=O)(=O)c1cccc(c1)C(=O)N(Cc1ccccn1)[C@H](CC(C)(C)C)CO2 [Compound 124, (11R)-6-(2,6-Dimethylphenyl)-11-(2,2-dimethylpropyl)-12-[(pyridin-2-yl)methyl]-9-oxa-2λ^6-thia-3,5,12,19-tetraazatricyclo[12.3.1.14,8]nonadeca-1(17),4,6,8(19),14(18),15-hexaene-2,2,13-trione]",+++ (+++ is >60%),< 1000,–,–,–
"Cc1cccc(C)c1-c1cc2nc(n1)NS(=O)(=O)c1cccc(c1)C(=O)N(Cc1cccc(N)n1)[C@H](CC(C)(C)C)CO2 [Compound 125, (11R)-12-[(6-Amino-2-pyridyl)methyl]-6-(2,6-dimethylphenyl)-11-(2,2-dimethylpropyl)-2,2-dioxo-9-oxa-2λ^6-thia-3,5,12,19-tetrazatricyclo[12.3.1.14,8]nonadeca-1(18),4(19),5,7,14,16-hexaen-13-one]",–,–,+++ (+++ is >600%),< 1000,–
Cc1cccc(C)c1-c1cc2nc(n1)NS(=O)(=O)c1cccc(c1)C(=O)N(Cc1ccc(C3CNCN3C)cc1)[C@H](CC(C)(C)C)CO2 (some centres unmarked) [Compound 316],–,–,+++ (+++ is >600%),–,–
Cc1cccc(C)c1-c1cc2nc(n1)NS(=O)(=O)c1cccc(c1)C(=O)N(Cc1ccc(-c3cn[nH]c3)cc1)[C@H](CC(C)(C)C)CO2 [Compound 317],–,–,+++ (+++ is >600%),< 1000,–
Cc1cccc(C)c1-c1cc2nc(n1)NS(=O)(=O)c1cccc(c1)C(=O)N(Cc1ccc(-c3csc(OC(C)C)n3)cc1)[C@H](CC(C)(C)C)CO2 [Compound 318],–,–,+++ (+++ is >600%),< 1000,–
Cc1cccc(C)c1-c1cc2nc(n1)NS(=O)(=O)c1cccc(c1)C(=O)N(CC1CN(C(=O)CO)C1)[C@H](CC(C)(C)C)CO2 [Compound 319],–,–,+ (+ is <300%),3000 to 30000,–
Cc1cccc(C)c1-c1cc2nc(n1)NSc1cccc(c1)C(=O)N(Cc1ccc(C(C)(C)O)nc1)[C@H](CC(C)(C)C(F)(F)F)CO2 [Compound 320],–,–,+++ (+++ is >600%),< 1000,–
Cc1cccc(C)c1-c1cc2nc(n1)NSc1cccc(c1)C(=O)N(Cc1ccc(C(C)(C)O)cc1)[C@H](CC(C)(C)C(F)(F)F)CO2 [Compound 321],–,–,+++ (+++ is >600%),< 1000,–
Cc1cccc(C)c1-c1cc2nc(n1)NS(=O)(=O)c1cccc(c1)C(=O)N(CCC(C)(C)C(C)(C)O)[C@H](CC(C)(C)C)CO2 [Compound 334],+++ (+++ is >60%),< 1000,–,–,–
Cc1cccc(C)c1-c1cc2nc(n1)NS(=O)(=O)c1cccc(c1)C(=O)N(C[C@H]1C[C@@H](C(C)(C)O)C1)[C@H](CC(C)(C)C)CO2 [Compound 335],+++ (+++ is >60%),< 1000,–,–,–
Cc1cccc(C)c1-c1cc2nc(n1)NS(=O)(=O)c1cccc(c1)C(=O)N(C)CC(c1ccc(CC3(C(F)(F)F)CC3)cn1)O2 (centres unmarked) [Compound 336],+++ (+++ is >60%),< 1000,–,–,–
Cc1cccc(C)c1-c1cc2nc(n1)NS(=O)(=O)c1cccc(c1)C(=O)N(Cc1ncccc1C(C)(C)O)[C@H](CC(C)(C)C)CO2 [Compound 385],–,–,+++ (+++ is >600%),< 1000,–
Cc1cccc(C)c1-c1cc2nc(n1)NS(=O)(=O)c1cccc(c1)C(=O)N(Cc1ncccc1N1CCOCC1)[C@H](CC(C)(C)C)CO2 [Compound 386],–,–,+++ (+++ is >600%),< 1000,–
Cc1cccc(C)c1-c1cc2nc(n1)NS(=O)(=O)c1cccc(c1)C(=O)N(Cc1ccc(N)nc1)[C@H](CC(C)(C)C)CO2 [Compound 387],–,–,+++ (+++ is >600%),< 1000,–
